Test results taken from paper PMC12566046, “Arylpiperazinyl-Benzocycloheptapyrrole-Carboxamides Endowed with Dual Anticancer and Antiviral Activities” (Molecules, 2025).

Legend:
[1] = system: BT-549 (breast cancer cell line); experiment: NCI-60 single-dose assay; assay type: cell-based, human; details: Homo sapiens, BT-549, read-out: growth inhibition (GI%) and cytotoxicity (negative values)
Procedure, shortened: (§1)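 NCI-60 one-dose format: each compound is tested at a single dose against human tumour lines for cytotoxic effect.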

[2] = system: CCRF-CEM (leukemia cell line); experiment: NCI-60 single-dose assay; assay type: cell-based, human; details: Homo sapiens, read-out: growth inhibition (GI%) and cytotoxicity (negative values)
Procedure, shortened: as §1

[3] = system: EKVX (non-small cell lung cancer cell line); experiment: NCI-60 single-dose assay; assay type: cell-based, human; details: Homo sapiens, read-out: growth inhibition (GI%) and cytotoxicity (negative values)
Procedure, shortened: as §1

[4] = system: HCT-116 (colon cancer cell line); experiment: NCI-60 single-dose assay; assay type: cell-based, human; details: for inhibition at 10 µM: Homo sapiens, HCT-116, read-out: growth inhibition (GI%) and cytotoxicity (negative values)
Procedure, shortened: as §1

[5] = system: HT29 (colon cancer cell line); experiment: NCI-60 single-dose assay; assay type: cell-based, human; details: for growth inhibition (GI%) and cytotoxicity (negative values): human
Procedure, shortened: as §1

[6] = system: LOX IMVI (melanoma cell line); experiment: NCI-60 single-dose assay; assay type: cell-based, human; details: for growth inhibition (GI%) and cytotoxicity (negative values): human
Procedure, shortened: as §1

[7] = system: MCF-7 (breast cancer cell line); experiment: NCI-60 single-dose assay; assay type: cell-based, human; details: Homo sapiens, MCF7, read-out: growth inhibition (GI%) and cytotoxicity (negative values), MCF-7, 10^−5 M
Procedure, shortened: as §1

[8] = system: MDA-MB-231/ATCC (breast cancer cell line); experiment: NCI-60 single-dose assay; assay type: cell-based, human; details: Homo sapiens, MDA-MB-231, read-out: growth inhibition (GI%) and cytotoxicity (negative values)
Procedure, shortened: as §1

[9] = system: MDA-MB-435 (melanoma cell line); experiment: NCI-60 single-dose assay; assay type: cell-based, human; details: for growth inhibition (GI%) and cytotoxicity (negative values): human
Procedure, shortened: as §1

[10] = system: MOLT-4 (leukemia cell line); experiment: NCI-60 single-dose assay; assay type: cell-based, human; details: Homo sapiens, MOLT-4, read-out: growth inhibition (GI%) and cytotoxicity (negative values)
Procedure, shortened: as §1

[11] = system: NCI-H23 (non-small cell lung cancer cell line); experiment: NCI-60 single-dose assay; assay type: cell-based, human; details: Homo sapiens, NCI-H23, read-out: growth inhibition (GI%) and cytotoxicity (negative values)
Procedure, shortened: as §1

[12] = system: RXF 393 (renal cancer cell line); experiment: NCI-60 single-dose assay; assay type: cell-based, human; details: for inhibition at 10 µM: Homo sapiens, RXF 393, read-out: growth inhibition (GI%) and cytotoxicity (negative values)
Procedure, shortened: as §1

[13] = system: SK-MEL-2 (melanoma cell line); experiment: NCI-60 single-dose assay; assay type: cell-based, human; details: for inhibition at 10 µM: Homo sapiens, SK-MEL-2, read-out: growth inhibition (GI%) and cytotoxicity (negative values)
Procedure, shortened: as §1

[14] = system: SK-MEL-28 (melanoma cell line); experiment: NCI-60 single-dose assay; assay type: cell-based, human; details: human
Procedure, shortened: as §1

[15] = system: SK-MEL-5 (melanoma cell line); experiment: NCI-60 single-dose assay; assay type: cell-based, human; details: human
Procedure, shortened: as §1

[16] = system: SN12C (renal cancer cell line); experiment: NCI-60 single-dose assay; assay type: cell-based, human; details: Homo sapiens, read-out: growth inhibition (GI%) and cytotoxicity (negative values)
Procedure, shortened: as §1

[17] = system: SR (leukemia cell line); experiment: NCI-60 single-dose assay; assay type: cell-based, human; details: for inhibition at 10 µM: Homo sapiens, read-out: growth inhibition (GI%) and cytotoxicity (negative values)
Procedure, shortened: as §1

[18] = system: T-47D (breast cancer cell line); experiment: NCI-60 single-dose assay; assay type: cell-based, human; details: Homo sapiens, T47D, read-out: growth inhibition (GI%) and cytotoxicity (negative values)
Procedure, shortened: as §1

[19] = system: UACC-257 (melanoma cell line); experiment: NCI-60 single-dose assay; assay type: cell-based, human; details: human
Procedure, shortened: as §1

[20] = system: UO-31 (renal cancer cell line); experiment: NCI-60 single-dose assay; assay type: cell-based, human; details: Homo sapiens, UO-31, read-out: growth inhibition (GI%) and cytotoxicity (negative values)
Procedure, shortened: as §1

[21] = system: RPMI-8226 (leukemia cell line); experiment: NCI-60 five-dose assay; assay type: cell-based, human; details: Homo sapiens, five doses (10^−4–10^−8 M), read-out: Growth inhibition 50 (GI50)
[22] = system: SR (leukemia cell line); experiment: NCI-60 five-dose assay; assay type: cell-based, human; details: Homo sapiens, five doses (10^−4–10^−8 M), read-out: Growth inhibition 50 (GI50)
[23] = system: HCT-116 (colon cancer cell line); experiment: NCI-60 five-dose assay; assay type: cell-based, human; details: Homo sapiens, five doses (10^−4–10^−8 M), read-out: Growth inhibition 50 (GI50)
[24] = system: HT29 (colon cancer cell line); experiment: NCI-60 five-dose assay; assay type: cell-based, human; details: Homo sapiens, HT-29, five doses (10^−4–10^−8 M), read-out: Growth inhibition 50 (GI50)
[25] = system: Breast Cancer panel; experiment: NCI-60 five-dose assay, panel-level GI50 (mean graph midpoint); assay type: cell-based, human; details: Homo sapiens; Breast Cancer panel average; read-out: GI50 mean graph midpoint (MG_MID)
Method: (§2) Due to these preliminary results, six compounds, 1, 5, 10, 11, 17, and 20, were selected for the five-dose screen NCI-programme against the same panel of tumour cell lines.
(§3) Next, a mean graph midpoint (MG_MD) was calculated for compounds 1, 5, 10, 11, 17, and 20 and reported as waterfall graphs GI50, TGI, and LC50 in the Supplementary Materials (Figures S69–S86). In Table 9, we reported the average GI50 for the nine-cancer panels, underlining both the activity and selectivity for compounds 1, 10, 11, and 20.

[26] = system: CNS Cancer panel; experiment: as above; assay type: cell-based, human; details: Homo sapiens; CNS Cancer panel average; read-out: GI50 mean graph midpoint (MG_MID)
Method: as §2, §3

[27] = system: Non-Small Cell Lung Cancer panel; experiment: as above; assay type: cell-based, human; details: Homo sapiens; Non-Small Cell Lung Cancer panel average; read-out: GI50 mean graph midpoint (MG_MID)
Method: as §2, §3

[28] = system: Ovarian Cancer panel; experiment: as above; assay type: cell-based, human; details: Homo sapiens; Ovarian Cancer panel average; read-out: GI50 mean graph midpoint (MG_MID)
Method: as §2, §3

[29] = system: MALME-3M (melanoma cell line); experiment: NCI-60 five-dose assay; details: for GI50 / CC50: Homo sapiens, Malme-3M; for GI50: read-out: Growth inhibition 50 (GI50); for CC50: read-out: LC50 (molar concentration leading to 50% net cell death); for TGI (molar concentration giving total growth inhibition): MALME-3M
[30] = system: MDA-MB-435 (melanoma cell line); experiment: NCI-60 five-dose assay; details: for GI50 / CC50: Homo sapiens; for GI50: MDA-MB-435, read-out: Growth inhibition 50 (GI50); for CC50: MDA-MB-435, read-out: LC50 (molar concentration leading to 50% net cell death); for TGI (molar concentration giving total growth inhibition): MDA-MB-435

SMILES | inhibition at 10 µM [1] | inhibition at 10 µM [2] | inhibition at 10 µM [3] | inhibition at 10 µM [7] | inhibition at 10 µM [8] | inhibition at 10 µM [10] | inhibition at 10 µM [11] | growth inhibition (GI%) and cytotoxicity (negative values) [14] | growth inhibition (GI%) and cytotoxicity (negative values) [15] | inhibition at 10 µM [16] | inhibition at 10 µM [18] | growth inhibition (GI%) and cytotoxicity (negative values) [19] | inhibition at 10 µM [20] | GI50 [21] | GI50 [22] | GI50 [23] | GI50 [24] | GI50 [25] | GI50 [26] | GI50 [27] | other results
O=C(NCCCN1CCN(Cc2ccccc2)CC1)c1c(Cl)[nH]c2c1CCCc1ccccc1-2 [Compound 20, N-(3-(4-Benzylpiperazin-1-yl)propyl)-2-chloro-1,4,5,6-tetrahydrobenzo[6,7]cyclohepta[1,2-b]pyrrole-3-carboxamide] | 68.4% | < 60% | 77.2% | 95.5% | 62.6% | < 60% | 60.2% | −88.58% | −89.68% | < 60% | 78.5% | −58.02% | 65.9% | 3.69 µM | 0.53 µM | 5.5 µM | 4.03 µM | 6.92 µM | 12 µM | 10.5 µM | inhibition at 10 µM [4]: 95.5%; inhibition at 10 µM ([5]; Homo sapiens, HT-29, read-out: growth inhibition (GI%) and cytotoxicity (negative values)): 94.7%; growth inhibition (GI%) and cytotoxicity (negative values) [6]: −69.19%; growth inhibition (GI%) and cytotoxicity (negative values) [9]: −21.33%; inhibition at 10 µM [12]: 78.2%; growth inhibition (GI%) and cytotoxicity (negative values) ([13]; human): −52.93%; inhibition at 10 µM [17]: 99.4%; GI50 [28]: 12 µM; GI50 [29]: 2.02 µM; CC50 [29]: 7.76 µM; TGI (molar concentration giving total growth inhibition) [29]: 3.98 µM; GI50 [30]: 4.9 µM; CC50 [30]: 49 µM; TGI (molar concentration giving total growth inhibition) [30]: 17.78 µM
O=C(NCCCN1CCN(c2ccccc2)CC1)c1cc2c([nH]1)-c1ccccc1CCC2 [Compound 10, N-(3-(4-Phenylpiperazin-1-yl)propyl)-1,4,5,6-tetrahydrobenzo[6,7]cyclohepta[1,2-b]pyrrole-2-carboxamide] | < 60% | 61.2% | 74.2% | 80.2% | < 60% | < 60% | < 60% | −29.31% | −72.58% | < 60% | 65.8% | −8.50% | < 60% | 3 µM | 2.29 µM | 4.83 µM | 3.14 µM | 8.32 µM | 17 µM | 9.33 µM | inhibition at 10 µM [4]: 95.7%; growth inhibition (GI%) and cytotoxicity (negative values) [5]: −2.47%; inhibition at 10 µM ([6]; Homo sapiens, LOX IMVI, read-out: growth inhibition (GI%) and cytotoxicity (negative values)): 95.2%; inhibition at 10 µM ([9]; Homo sapiens, MDA-MB-435, read-out: growth inhibition (GI%) and cytotoxicity (negative values)): 75.1%; growth inhibition (GI%) and cytotoxicity (negative values) ([12]; human): −8.69%; inhibition at 10 µM [13]: 75%; growth inhibition (GI%) and cytotoxicity (negative values) ([17]; human): −19.75%; GI50 [28]: 12.3 µM; GI50 [29]: 1.65 µM; CC50 [29]: 15.5 µM; TGI (molar concentration giving total growth inhibition) [29]: 4.36 µM; GI50 [30]: 7.88 µM; CC50 [30]: 40.7 µM; TGI (molar concentration giving total growth inhibition) [30]: 18.62 µM
CCN1CCC[C@H]1CNC(=O)c1[nH]c2c(c1Cl)CCCc1ccccc1-2 [Compound 1, (S)-3-Chloro-N-(1-ethyl-2-pyrrolidinylmethyl)-5,6-dihydro-4H-benzo[6,7]cyclohepta[1,2-b]pyrrol-2-carboxamide] | 62.9% | 75.5% | 68.8% | 87.2% | 89% | 96.2% | < 60% | −85.77% | −88.03% | < 60% | 66.2% | −55.18% | 83% | 2.29 µM | 2.29 µM | 3.12 µM | 1.86 µM | 4.47 µM | 4.79 µM | 7.24 µM | growth inhibition (GI%) and cytotoxicity (negative values) ([4]; human): −25.27%; growth inhibition (GI%) and cytotoxicity (negative values) [5]: −32.25%; growth inhibition (GI%) and cytotoxicity (negative values) [6]: −25.00%; growth inhibition (GI%) and cytotoxicity (negative values) [9]: −78.15%; inhibition at 10 µM [12]: 79.7%; inhibition at 10 µM [13]: 85.8%; inhibition at 10 µM [17]: 96.3%; GI50 [28]: 2.29 µM; GI50 [29]: 1.54 µM; CC50 [29]: 5.62 µM; TGI (molar concentration giving total growth inhibition) [29]: 2.95 µM; GI50 [30]: 1.76 µM; CC50 [30]: 5.62 µM; TGI (molar concentration giving total growth inhibition) [30]: 3.55 µM
